Measurements reported in BindingDB's records for doi:10.7270/Q2930WC4 (n/a, 1995).

Target: Alpha-2 adrenergic receptor (Rattus norvegicus)
Experiment: Compound was tested for its binding affinity against Alpha-2 adrenergic receptor

- Ki: 302 nM
Structure (SMILES): CCCN(CCCCCCN1CCC[C@@H]1Cc1ccc(O)c(O)c1)CCc1ccc(O)c(O)c1
